Test results reported in patent publication US9969858B2, “Metalloinsertor conjugates” (CALIFORNIA INSTITUTE OF TECHNOLOGY, priority 2015, dated 2018).

System: duplex DNA containing a CC mismatch
Assay: Photocleavage of mismatched DNA upon irradiation (competition titration)
Type: biochemical
Settings: 340-440 nm irradiation
Experimental: For [RhPt] Conjugate, a single-stranded DNA oligomer with the sequence [NT]. ID NO: 2) (underline denotes the mismatch) was labeled at the 5'-end with [^32P]-ATP and polynucleotide kinase (PNK) at 37° C. for 1 h. The radiolabeled DNA was purified by gel electrophoresis and annealed to its mismatched complement (containing a CC mismatch) by heating to 90° C. in buffer (100 mM NaCl, 20 mM NaPi, pH 7.1), followed by slow cooling to ambient temperature over 3 h, to give a final concentration of 2 μM duplex DNA. Racemic solutions of the metal complex (containing all stereoisomers) were prepared in Milli-Q water over a range of concentrations (100 nM-50 μM). For each sample, 4 μM […] (5 μl), which photocleaves DNA at mismatched sites, 2 μM annealed mismatched duplex DNA (10 μl), and the non-photocleaving competitor complex at various concentrations (5 μl) were combined to give 1 μM […] and 1 μM duplex DNA as the final concentrations. […] The amounts of DNA in each band were analyzed by autoradiography and quantitated by phosphorimagery (ImageQuant) (FIG. 20). […] To assess the binding of the rhodium subunit of RhPt at the CC mismatch, the fraction of cleaved DNA was quantified and expressed as a percentage of the total DNA in each lane and plotted against the log of the concentration of RhPt. […]

Row | Substance | photocleavage of DNA upon irradiation
1 | rac-[Rh(bpy)2chrysi]Cl3 [rac-[Rh(bpy)2chrysi]3+] | does photocleave DNA at mismatched sites
2 | [Rh(chrysi)(HDPA)(Amal)Pt(DACH]^3+ [RhPt] | does not photocleave DNA
